According to patent US8034831B2, “Methods for the treatment and management of myeloproliferative diseases using 4-(amino)-2-(2,6-Dioxo(3-piperidyl)-isoindoline-1,3-dione in combination with other therapies” (Celgene Corporation, priority 2002, dated 2011):

Test system: myeloproliferative diseases
Assay: Treatment of patients with myeloproliferative diseases
Assay type: in vivo, human
Conditions: for clinical outcome of therapy (spleen, blood counts, constitutional symptoms): therapy with the JAK or HDAC inhibitor, patients
Protocol: 4-(Amino)-2-(2,6-dioxo(3-piperidyl))-isoindoline-1,3-dione (Pomalidomide or Actimid™) is orally administered to patients with myeloproliferative diseases in an amount of 0.1 to 10 mg per day in combination with prednisone, JAK1 inhibitor (e.g., INCB018424), JAK2 inhibitor (e.g., SB11518, XL019, TG101348, and INCB018424), FLT3 inhibitor (e.g., TG101348), BCL2 inhibitor (e.g., GX15-070MS) and/or HDAC inhibitor (e.g., ITF2357).

| SMILES | efficacy in treating myeloproliferative diseases (oral, 0.1 to 10 mg per day, in combination with prednisone, JAK1, JAK2, FLT3, BCL2 and/or HDAC inhibitor) | clinical outcome of therapy (spleen, blood counts, constitutional symptoms) |
| --- | --- | --- |
| Nc1cccc2c1C(=O)N(C1CCC(=O)NC1=O)C2=O (stereo not shown) [4-(Amino)-2-(2,6-dioxo(3-piperidyl))-isoindoline-1,3-dione] | effective in treating myeloproliferative diseases |  |
| N#CC[C@H](C1CCCC1)n1cc(-c2ncnc3[nH]ccc23)cn1 [INCB018424] |  | dramatic spleen shrinkage and improvement in constitutional symptoms |
| CCN(CC)Cc1ccc2cc(COC(=O)Nc3ccc(C(=O)NO)cc3)ccc2c1 [ITF2357] |  | improvement in constitutional symptoms, spleen size and some hematologic responses |
| O=C(Nc1ccc(-c2ccnc(Nc3ccc(N4CCOCC4)cc3)n2)cc1)C1CCCN1 (stereo not shown) [XL019] |  | reductions in splenomegaly and leukocytosis, stabilization of hemoglobin counts, improvements in blast counts, and resolution or improvement in generalized constitutional symptoms |
